Results from patent US20090118361A1, “SUPPRESSOR OF EXPRESSION OF MCP-1, AND AMELIORATING AGENT FOR INFLAMMATORY DISEASE, PHARMACEUTICAL, SUPPLEMENT, FOOD, BEVERAGE OR FOOD ADDITIVE USING THE SUPPRESSOR” (ARKRAY, INC., priority 2006, published 2009).

Tests used:
MCP-1 [1] = experiment: Suppression of MCP-1 mRNA expression in differentiated 3T3-L1 adipocytes (Light Cycler quantitative determination, ratio to 36B4); type: cell-based, mouse; conditions: 3T3-L1, eight days after start of differentiation induction, MCP-1/36B4 ratio relative to non-treated control = 100%, mean ± standard error
Description: (§1) First, two types of culture media indicated below, i.e. a differentiation induction culture medium and a differentiation enhancing culture medium, were prepared.
(§2) (Composition: 0.25 μM DEX, 0.5 mM MIX, 10 μg/mL insulin/10% FBS-containing DMEM)
(§3) First, 55 mL of FBS (fetal bovine serum (manufactured by GIBCO)) was added to 500 mL of DMEM (manufactured by SIGMA), and thereby 10% FBS-containing DMEM was prepared. Thereafter, 138.75 μL of 1 mM DEX (dexamethasone)-containing DMSO (manufactured by Nacalai Tesque, Inc.) and 555 μL of 10 mg/mL insulin-containing PBS (manufactured by SIGMA) were added thereto. The insulin-containing PBS was prepared as follows. That is, 1N HCl was added to PBS beforehand, so that PBS acidified to a degree that allowed insulin to dissolve therein, and thereafter insulin was dissolved therein. MIX (3-Isobutyl-1-methylxanthine) (manufactured by Nacalai Tesque, Inc.) was added to a required amount of the culture medium immediately before use so as to be 0.5 mM. Thus a differentiation induction culture medium was prepared. Since MIX was very difficult to dissolve, it first was dissolved in a small amount of 99.5% ethanol. which was then added to 10% FBS-containing DMEM. In this case, the final concentration of 99.5% ethanol in the differentiation induction culture medium was adjusted so as not to exceed 1%.
(§4) (Composition: 5 ug/mL insulin/10% FBS-containing DMEM/auraptene)
First, 277.5 μL of the aforementioned 10 mg/mL insulin-containing PBS was added to 555 ml, of 10% FBS-containing DMEM. Furthermore, auraptene (AUR) with various concentrations was added to this mixture and thereby differentiation enhancing culture media were prepared. […]
Subsequently, frozen cultured preadipocyte 3T3-L1 was thawed and was plated on the culture medium placed in a 100-mm dish. […] Subsequently, using a Light/Cycler®, the levels of mRNA expression of MCP-1 and 36B4, […], were measured. […]

MCP-1 [2] = experiment: MCP-1 protein secretion into conditioned medium of differentiated 3T3-L1 adipocytes (ELISA); type: cell-based, mouse; conditions: 3T3-L1 conditioned medium, eight days after start of differentiation induction, relative to non-treated control = 100, mean ± standard error
Description: as §1, §2, §3, §4
First, 277.5 μL of the aforementioned 10 mg/mL insulin-containing PBS was added to 555 ml, of 10% FBS-containing DMEM. Furthermore, auraptene (AUR) with various concentrations was added to this mixture and thereby differentiation enhancing culture media were prepared. In this case, a cultured cell obtained by using auraptene-free differentiation enhancing culture medium containing DMSO added instead of auraptene was employed as a non-treated control (control).
Subsequently, frozen cultured preadipocyte 3T3-L1 was thawed and was plated on the culture medium placed in a 100-mm dish. This was cultured until 3T3-L1 reached about 80% confluent. One dish of 3T3-L1 that had reached about 80% confluent was subcultured on a 6-well plate. Subsequently, after 3T3-L1 subcultured on the 6-well plate further was cultured until it reached 100% confluent, the culture medium was replaced by a differentiation induction culture medium and thereby differentiation was induced. Subsequently, 48 hours after replacement by a differentiation induction culture medium, the culture medium was replaced by a differentiation enhancing culture medium. Thereafter, replacement of the differentiation enhancing culture medium was carried out every three days. Using Sepasol RNA I Super (trade name, manufactured by Nacalai Tesque, Inc.), mRNA was extracted from the cultured cells eight days after the start of differentiation induction. Subsequently, using a Light/Cycler®, the levels of mRNA expression of MCP-1 and 36B4, […], were measured. The measurement of the levels of mRNA expression is described below in detail.
Furthermore, the culture medium obtained eight days after the start of differentiation induction was collected in an amount of 1 mL from each well. Using an ELISA kit (manufactured by BD Bioscience, trade name: BD OptEIA Set Mouse MCP-1), the amount of MCP-1 (protein abundance) in the conditioned medium was measured according to the manual of the kit.
The relative ratios calculated, with the measured value of the non-treated control (control) with respect to the measured value of the secretion amount of MCP-1 by ELISA being taken as 100, are indicated in Table 2 below and in the graph shown in FIG. 2. The auraptene concentrations indicated in Table 2 below and FIG. 2 are final concentrations in the differentiation enhancing culture media. In FIG. 2, AUR denotes auraptene, and Ctrl indicates the non-treated control (control). […]

CC(C)=CCC/C(C)=C/COc1ccc2ccc(=O)oc2c1 [Example 1, auraptene]
mRNA concentration of MCP-1 (MCP-1 [1]; auraptene 5 μM in differentiation enhancing medium): 99.8 ± 8.0%
mRNA concentration of MCP-1 (MCP-1 [1]; auraptene 20 μM in differentiation enhancing medium): 62.3 ± 5.8%
mRNA concentration of MCP-1 (MCP-1 [1]; auraptene 50 μM in differentiation enhancing medium): 28.3 ± 2.9%
Protein secretion amount of MCP-1 (MCP-1 [2]; auraptene 1 μM): 94.6 ± 4.9%
Protein secretion amount of MCP-1 (MCP-1 [2]; auraptene 5 μM): 98.6 ± 2.5%
Protein secretion amount of MCP-1 (MCP-1 [2]; auraptene 10 μM): 92.1 ± 4.6%
Protein secretion amount of MCP-1 (MCP-1 [2]; auraptene 20 μM): 72.3 ± 2.2%
Protein secretion amount of MCP-1 (MCP-1 [2]; auraptene 30 μM): 63.9 ± 2.5%
Protein secretion amount of MCP-1 (MCP-1 [2]; auraptene 50 μM): 48.5 ± 2.1%
